Source: patent US20040005537A1, “Method of identifying toxic agents using differential gene expression” (priority 2000, published 2004)

Test system: rat heart tissue
Experiment: GENECALLING differential gene expression analysis after dosing of serotonin modulating agents
Assay type: in vivo, Sprague Dawley rats
Method: Control animals received sterile water or canola oil. The animals were sacrificed 24 hours following the last dose. Liver tissue was dissected from the animals, and total RNA was recovered from the dissected tissue. cDNA was prepared and the resulting samples were processed through using GENECALLING™ differential expression analysis as described in U.S. Pat. No. 5,871,697 and in Shimkets et al., Nature Biotechnology 17:798-803 (1999). The contents of these patents and publications are incorporated herein by reference in their entirety.
Thousands of gene fragments were initially found to be differentially expressed in rat heart tissue in response to serotonin modulating agents in. Genes fragments whose expression levels were modulated greater than ±1.5-fold were selected for further analysis.
Column 6 of Table 1, entitled “Function”, lists the type of classification assigned for the protein, based on its function. The 210 single nucleic acid sequences identified herein, are referred to herein as CARDIOTOX 1-210.

In the case of CCN[C@@H](C)Cc1cccc(C(F)(F)F)c1 [dexfenfluramine], the “Effects on Transcription Level: Novel gene fragment, 467 bp, 94% SI to mouse gelsolin [J04953]” value (CARDIOTOX 70) is reported as −3.2 fold, the “Effects on Transcription Level: Novel gene fragment, 535 bp, 90% SI to mouse slow/cardiac troponin C [M29793]” value (CARDIOTOX 71) is reported as −2.0 fold and the “Effects on Transcription Level: Novel gene fragment, 445 bp, 85% SI to human skeletal muscle alpha 2 actinin [M86406]” value (CARDIOTOX 72) is reported as −1.7 fold. For the same compound, the “Effects on Transcription Level: Novel gene fragment, 246 bp, 89% SI to mouse ponsin-1 [AF078667]” value (CARDIOTOX 73) was −3.1 fold, the “Effects on Transcription Level: Novel gene fragment, 126 bp, 77% SI to human DNA sequence from cosmid V311G7, between markers DXS366 and DXS87 on chromosome X [Z69304]” value (CARDIOTOX 74) was “+2.0 fold” and the “Effects on Transcription Level: Novel gene fragment, 370 bp” value (CARDIOTOX 75) was −2.6 fold. For the same compound, the “Effects on Transcription Level: Novel gene fragment, 337 bp, 78% SI to novel human protein AHNAK [M80899]” value (CARDIOTOX 76) was −4.2 fold, the “Effects on Transcription Level: Novel gene fragment, 100 bp, 93% SI to human KIAA0750 protein [ABO18293]” value (CARDIOTOX 77) was −7.5 fold and the “Effects on Transcription Level: Novel gene fragment, 44 bp” value (CARDIOTOX 78) was −6.5 fold. For the same compound, the “Effects on Transcription Level: Novel gene fragment, 698 bp, 93% SI to mouse plenty-of-prolines-101 [AF062655]” value (CARDIOTOX 79) was −2.3 fold, the “Effects on Transcription Level: Novel gene fragment, 660 bp, 84% SI to mouse membrane protein TMS-2 [AF181685]” value (CARDIOTOX 80) was −3.6 fold and the “Effects on Transcription Level: Novel gene fragment, 115 bp” value (CARDIOTOX 81) was −4.0 fold. For the same compound, the “Effects on Transcription Level: Novel gene fragment, 294 bp, 95% SI to mouse Ndr1 related protein Ndr2 [AB033921]” value (CARDIOTOX 82) was −2.0 fold, the “Effects on Transcription Level: Novel gene fragment, 198 bp” value (CARDIOTOX 83) was “+2.5 fold” and the “Effects on Transcription Level: Novel gene fragment, 730 bp, 86% SI to mouse E800 [Y10968]” value (CARDIOTOX 84) was −2.0 fold. The “Effects on Transcription Level: Novel gene fragment, 294 bp, 98% SI to cysteine conjugate beta-lyase [S61960]” value (CARDIOTOX 85) was −2.0 fold, the “Effects on Transcription Level: Aconitase” value (CARDIOTOX 86, GenBank A1243266) was −3.1 fold and the “Effects on Transcription Level: Ribosomal protein L7” value (CARDIOTOX 87, GenBank M17422) was “+2.5 fold”. The “Effects on Transcription Level: Ribosomal protein L9” value (CARDIOTOX 88, GenBank X51706) was “+10.0 fold”, the “Effects on Transcription Level: Ribosomal protein L12” value (CARDIOTOX 89, GenBank X53504) was −2.2 fold and the “Effects on Transcription Level: 18S, 5.8S, and 28S ribosomal RNA's” value (CARDIOTOX 90, GenBank V01270) was “+5 fold”. For the same compound, the “Effects on Transcription Level: Pyruvate dehydrogenase kinase 2 (PDK2)” value (CARDIOTOX 91, GenBank U10357) was −6.9 fold, the “Effects on Transcription Level: D-Binding Protein (DBP)” value (CARDIOTOX 92, GenBank J03179) was −1.9 fold and the “Effects on Transcription Level: Lipoprotein lipase” value (CARDIOTOX 93, GenBank L03294) was −2.2 fold. The “Effects on Transcription Level: Non-neuronal enolase” value (CARDIOTOX 94, GenBank X02610) was “+3.5 fold”, the “Effects on Transcription Level: Glycogen phosphorylase (muscle isozyme)” value (CARDIOTOX 95, GenBank L10669) was −2.0 fold and the “Effects on Transcription Level: Cytochrome c oxidase subunit IV” value (CARDIOTOX 96, GenBank X14209) was “+10.0 fold”. The “Effects on Transcription Level: Alpha-globin” value (CARDIOTOX 97, GenBank M17083) was “+3.0 fold”, the “Effects on Transcription Level: Beta-globin” value (CARDIOTOX 98, GenBank X06701) was “+3.1 fold” and the “Effects on Transcription Level: Myoglobin” value (CARDIOTOX 99, GenBank AF197916) was “+4.7 fold”. The “Effects on Transcription Level: Titin” value (CARDIOTOX 100, GenBank L38717) was −2.0 fold, the “Effects on Transcription Level: Skeletal muscle actin” value (CARDIOTOX 101, GenBank V01218) was −18.2 fold and the “Effects on Transcription Level: Myosin light chain 2 (MLC2)” value (CARDIOTOX 102, GenBank M11851) was “+2.6 fold”. The “Effects on Transcription Level: Alpha cardiac myosin heavy chain” value (CARDIOTOX 103, GenBank X15938) was −3.4 fold, the “Effects on Transcription Level: Troponin I” value (CARDIOTOX 104, GenBank U77354) was “+1.8 fold” and the “Effects on Transcription Level: Cardiac calsequestrin” value (CARDIOTOX 105, GenBank AF001334) was −2.9 fold. The “Effects on Transcription Level: Sulfated glycoprotein 2” value (CARDIOTOX 106, GenBank M16975) was −1.8 fold, the “Effects on Transcription Level: Aquaporin 7” value (CARDIOTOX 107, GenBank AB000507) was “+1.5 fold” and the “Effects on Transcription Level: Carnitine/acylcarnitine carrier protein” value (CARDIOTOX 108, GenBank X97831) was −2.5 fold. The “Effects on Transcription Level: Glu-Pro Dipeptide Repeat” value (CARDIOTOX 109, GenBank U40628) was −5.0 fold, the “Effects on Transcription Level: Cystatin beta” value (CARDIOTOX 110, GenBank X54737) was “+2.5 fold” and the “Effects on Transcription Level: Novel gene fragment, 593 bp, 90% SI to human calcineurin B-like protein [Z08983]” value (CARDIOTOX 111) was “+1.9 fold”. The “Effects on Transcription Level: Novel gene fragment, 179 bp, 88% SI to human titin [X90568]” value (CARDIOTOX 112) was −3.1 fold, the “Effects on Transcription Level: Novel gene fragment, 700 bp, 91% SI to mouse periplakin (PPL) [AF116523]” value (CARDIOTOX 113) was “+2.5 fold” and the “Effects on Transcription Level: Long chain acyl-CoA dehydrogenase (LCAD)” value (CARDIOTOX 114, GenBank J05029) was “+1.7 fold”. For the same compound, the “Effects on Transcription Level: Sulfated glycoprotein 1 (SGP-1)” value (CARDIOTOX 115, GenBank M19936) was −1.7 fold, the “Effects on Transcription Level: Catalase” value (CARDIOTOX 116, GenBank M11670) was “+2.1 fold” and the “Effects on Transcription Level: Alpha-fodrin (A2A) (Nonerythroid spectrin alpha subunit)” value (CARDIOTOX 117, GenBank AF084186) was −1.7 fold. For the same compound, the “Effects on Transcription Level: Cardiac specific sodium channel alpha-subunit” value (CARDIOTOX 118, GenBank M27902) was −2.0 fold, the “Effects on Transcription Level: Glu-Pro Dipeptide Repeat” value (CARDIOTOX 119, GenBank U40628) was “+4.6 fold” and the “Effects on Transcription Level: Novel gene fragment, 200 bp, 64% SI to human KIAA0733 protein [AB018316]” value (CARDIOTOX 120) was −1.6 fold. For the same compound, the “Effects on Transcription Level: RNA polymerase II transcription factor SIII (p18 subunit)” value (CARDIOTOX 121, GenBank L42855) was “+2.0 fold”, the “Effects on Transcription Level: Protein-tyrosine phosphalase (LRP)” value (CARDIOTOX 122, GenBank L01702) was “+1.7 fold” and the “Effects on Transcription Level: Skeletal muscle selenoprotein W (SelW)” value (CARDIOTOX 123, GenBank U25264) was −1.6 fold. The “Effects on Transcription Level: Sarcoplasmic reticulum 2+-Ca-ATPase” value (CARDIOTOX 124, GenBank X15635) was −2.0 fold, the “Effects on Transcription Level: Ribosomal protein S7” value (CARDIOTOX 125, GenBank X53377) was “+1.7 fold” and the “Effects on Transcription Level: Ribophorin I” value (CARDIOTOX 126, GenBank X05300) was “+2.0 fold”. The “Effects on Transcription Level: Beta cardiac myosin heavy chain” value (CARDIOTOX 127, GenBank X15939) was “+2.4 fold”, the “Effects on Transcription Level: ADP-ribosylation factor 1” value (CARDIOTOX 128, GenBank L12380) was “+1.1 fold” and the “Effects on Transcription Level: Laminin receptor” value (CARDIOTOX 129, GenBank U04942) was “+2.6 fold”. For the same compound, the “Effects on Transcription Level: Novel gene fragment, 206 bp, 89% SI to human seryl-tRNA synthetase [X91257]” value (CARDIOTOX 130) was “+1.8 fold”, the “Effects on Transcription Level: Annexin VI” value (CARDIOTOX 131, GenBank X86086) was −10.0 fold and the “Effects on Transcription Level: Novel gene fragment, 325 bp, 90% SI to mouse N-RAP [U76618]” value (CARDIOTOX 132) was “+1.7 fold”. For the same compound, the “Effects on Transcription Level: Novel gene fragment, 61 bp (CARDIOTOX 134)” value (LD10 dose for three days) was −1.8 fold, the “Effects on Transcription Level: Novel gene fragment, 337 bp (CARDIOTOX 133)” value (LD10 dose for three days) was −2.0 fold and the “Effects on Transcription Level: Novel gene fragment, 378 bp, 88% SI to human coatomer protein (COPA) [U24105] (CARDIOTOX 138)” value (LD10 dose for three days) was −2.0 fold. The “Effects on Transcription Level: Long chain 3-ketoacyl-CoA thiolase (CARDIOTOX 136)” value (LD10 dose for three days, GenBank D16479) was −1.5 fold, the “Effects on Transcription Level: TATA-binding protein interacting protein 120 (TIP120) (CARDIOTOX 135)” value (LD10 dose for three days, GenBank D87671) was “+2.3 fold” and the “Effects on Transcription Level: Serine protease (CARDIOTOX 139)” value (LD10 dose for three days, GenBank D88250) was “+1.6 fold”. For the same compound, the “Effects on Transcription Level: Thymosin beta-4 (CARDIOTOX 137)” value (LD10 dose for three days, GenBank M34043) was “+1.4 fold” and the “Effects on Transcription Level: Annexin VI (no CARDIOTOX assignment given)” value (LD10 dose for three days, GenBank X86086) was −5.1 fold.
